Marks after values point to notes of the source that are not given here.
How the values were obtained:
recurrent ovarian cancer = assay: Phase 1b study: DPX-Survivac with low dose cyclophosphamide and epacadostat, tumor response by modified RECIST 1.1; type: in vivo, human; conditions: for CR (complete response), number of subjects / DCR (CR + PR + SD), disease control rate / DCR (CR + PR + SD), number of subjects / ORR (overall response rate), % of subjects / ORR (overall response rate), number of subjects / PR (partial response), % of subjects / PR (partial response), number of subjects / Partial response, % of subjects / Partial response, subjects/N / Progressive disease, % of subjects / Progressive disease, subjects/N / Stable disease, % of subjects / Stable disease, subjects/N / Tumor regressions, % of subjects / Tumor regressions, subjects/N / PD (progressive disease), % of subjects / PD (progressive disease), subjects/N / PR (partial response), subjects/N: with DPX-Survivac + low dose CPA
survivin = assay: Cell mediated immunity: survivin-specific T cell response by ELISpot (Phase 1b); type: in vivo, human; conditions: with DPX-Survivac + low dose CPA
Procedure: Cell Mediated Immunity was determined by immunogenicity analysis and describe as the percentage of subjects with a positive immune response to one or more epitopes in the T cell activation therapeutic as well as changes in immune cell infiltration to the tumor. For ELISpot, antigen-specific response rate greater than Mean+2SD (typically>64 SFU/106 PBMC) obtained from pre-treatment and/or unstimulated/background cells was considered a positive response. Further, based on the magnitude of ELISpot response following treatment, subjects were classified as low (>64 to <512 SFU/106 PBMC) or high (>512 SFU/106 PBMC) immune responders to treatment or described as having a high and sustained immune response (3 separate time points >512 SFU/106 PBMC).

[1] = all epacadostat doses (N = 15), total target lesion size < 5 cm
[2] = all epacadostat doses (N = 38), total target lesion size ≥ 5 cm
[3] = epacadostat 100 mg (N = 5), sum of target lesion at baseline <5 cm
[4] = epacadostat 100 mg (N = 14), all subjects
[5] = epacadostat 100 mg BID (N = 5), total target lesion size < 5 cm
[6] = epacadostat 100 mg BID (N = 9), total target lesion size ≥ 5 cm
[7] = epacadostat 100 mg and 300 mg, Total (N = 53)
[8] = epacadostat 300 mg (N = 10), sum of target lesion at baseline <5 cm, partially monitored data
[9] = epacadostat 300 mg (N = 39), all subjects, partially monitored data
[10] = epacadostat 300 mg BID (N = 10), total target lesion size < 5 cm
[11] = epacadostat 300 mg BID (N = 29), total target lesion size ≥ 5 cm
[12] = epacadostat Total (N = 15), sum of target lesion at baseline <5 cm

NS(=O)(=O)NCCNc1nonc1/C(=N\c1ccc(F)c(Br)c1)NO [Epacadostat]
dose related activity of epacadostat (recurrent ovarian cancer; preliminary analysis, 100 mg vs 300 mg combined with DPX-Survivac and low dose CPA): absence of dose related activity | CR (complete response), number of subjects (recurrent ovarian cancer; [1]): 0 | DCR (CR + PR + SD), disease control rate (recurrent ovarian cancer; [1]): (66.7%) | DCR (CR + PR + SD), number of subjects (recurrent ovarian cancer; [1]): 10 | ORR (overall response rate), % of subjects (recurrent ovarian cancer; [1]): (26.7%) | ORR (overall response rate), number of subjects (recurrent ovarian cancer; [1]): 4 | PR (partial response), % of subjects (recurrent ovarian cancer; [1]): (26.7%) | PR (partial response), number of subjects (recurrent ovarian cancer; [1]): 4 | CR (complete response), number of subjects (recurrent ovarian cancer; [2]): 0 | DCR (CR + PR + SD), disease control rate (recurrent ovarian cancer; [2]): (39.5%) | DCR (CR + PR + SD), number of subjects (recurrent ovarian cancer; [2]): 15 | ORR (overall response rate), % of subjects (recurrent ovarian cancer; [2]): (2.6%) | ORR (overall response rate), number of subjects (recurrent ovarian cancer; [2]): 1 | PR (partial response), % of subjects (recurrent ovarian cancer; [2]): (2.6%) | PR (partial response), number of subjects (recurrent ovarian cancer; [2]): 1 | Partial response, % of subjects (recurrent ovarian cancer; [3]): (60.0%) | Partial response, subjects/N (recurrent ovarian cancer; [3]): 3/5 | Progressive disease, % of subjects (recurrent ovarian cancer; [3]): (0%) | Progressive disease, subjects/N (recurrent ovarian cancer; [3]): 0/5 | Stable disease, % of subjects (recurrent ovarian cancer; [3]): (40.0%) | Stable disease, subjects/N (recurrent ovarian cancer; [3]): 2/5 | Tumor regressions, % of subjects (recurrent ovarian cancer; [3]): (100%) | Tumor regressions, subjects/N (recurrent ovarian cancer; [3]): 5/5 | PD (progressive disease), % of subjects (recurrent ovarian cancer; [4]): (35.7%) | PD (progressive disease), subjects/N (recurrent ovarian cancer; [4]): 5/14 | PR (partial response), % of subjects (recurrent ovarian cancer; [4]): (21.4%) | PR (partial response), subjects/N (recurrent ovarian cancer; [4]): 3/14 | Tumor regressions, % of subjects (recurrent ovarian cancer; [4]): (35.7%) | Tumor regressions, subjects/N (recurrent ovarian cancer; [4]): 5/14 | CR (complete response), number of subjects (recurrent ovarian cancer; [5]): 0 | DCR (CR + PR + SD), disease control rate (recurrent ovarian cancer; [5]): (100%) | DCR (CR + PR + SD), number of subjects (recurrent ovarian cancer; [5]): 5 | ORR (overall response rate), % of subjects (recurrent ovarian cancer; [5]): (60%) | ORR (overall response rate), number of subjects (recurrent ovarian cancer; [5]): 3 | PR (partial response), % of subjects (recurrent ovarian cancer; [5]): (60.0%) | PR (partial response), number of subjects (recurrent ovarian cancer; [5]): 3 | CR (complete response), number of subjects (recurrent ovarian cancer; [6]): 0 | DCR (CR + PR + SD), disease control rate (recurrent ovarian cancer; [6]): (33.3%) | DCR (CR + PR + SD), number of subjects (recurrent ovarian cancer; [6]): 3 | ORR (overall response rate), number of subjects (recurrent ovarian cancer; [6]): 0 | PR (partial response), number of subjects (recurrent ovarian cancer; [6]): 0 | PD (progressive disease), % of subjects (recurrent ovarian cancer; [7]): (34.0%) | PD (progressive disease), subjects/N (recurrent ovarian cancer; [7]): 18/53 | PR (partial response), % of subjects (recurrent ovarian cancer; [7]): (9.4%) | PR (partial response), subjects/N (recurrent ovarian cancer; [7]): 5/53 | Tumor regressions, % of subjects (recurrent ovarian cancer; [7]): (20.1%) | Tumor regressions, subjects/N (recurrent ovarian cancer; [7]): 11/53 | Partial response, % of subjects (recurrent ovarian cancer; [8]): (10.0%) | Partial response, subjects/N (recurrent ovarian cancer; [8]): 1/10 | Progressive disease, % of subjects (recurrent ovarian cancer; [8]): (50.0%) | Progressive disease, subjects/N (recurrent ovarian cancer; [8]): 5/10 | Stable disease, % of subjects (recurrent ovarian cancer; [8]): (40.0%) | Stable disease, subjects/N (recurrent ovarian cancer; [8]): 4/10 | Tumor regressions, % of subjects (recurrent ovarian cancer; [8]): (30.0%) | Tumor regressions, subjects/N (recurrent ovarian cancer; [8]): 3/10 | PD (progressive disease), % of subjects (recurrent ovarian cancer; [9]): (33.3%) | PD (progressive disease), subjects/N (recurrent ovarian cancer; [9]): 13/39 | PR (partial response), % of subjects (recurrent ovarian cancer; [9]): (5.1%) | PR (partial response), subjects/N (recurrent ovarian cancer; [9]): 2/39 | Tumor regressions, % of subjects (recurrent ovarian cancer; [9]): (15.4%) | Tumor regressions, subjects/N (recurrent ovarian cancer; [9]): 6/39 | CR (complete response), number of subjects (recurrent ovarian cancer; [10]): 0 | DCR (CR + PR + SD), disease control rate (recurrent ovarian cancer; [10]): (50.0%) | DCR (CR + PR + SD), number of subjects (recurrent ovarian cancer; [10]): 5 | ORR (overall response rate), % of subjects (recurrent ovarian cancer; [10]): (10.0%) | ORR (overall response rate), number of subjects (recurrent ovarian cancer; [10]): 1 | PR (partial response), % of subjects (recurrent ovarian cancer; [10]): (10.0%) | PR (partial response), number of subjects (recurrent ovarian cancer; [10]): 1 | CR (complete response), number of subjects (recurrent ovarian cancer; [11]): 0 | DCR (CR + PR + SD), disease control rate (recurrent ovarian cancer; [11]): (41.4%) | DCR (CR + PR + SD), number of subjects (recurrent ovarian cancer; [11]): 12 | ORR (overall response rate), % of subjects (recurrent ovarian cancer; [11]): (3.4%) | ORR (overall response rate), number of subjects (recurrent ovarian cancer; [11]): 1 | PR (partial response), % of subjects (recurrent ovarian cancer; [11]): (3.4%) | PR (partial response), number of subjects (recurrent ovarian cancer; [11]): 1 | Partial response, % of subjects (recurrent ovarian cancer; [12]): (26.7%) | Partial response, subjects/N (recurrent ovarian cancer; [12]): 4/15 | Progressive disease, % of subjects (recurrent ovarian cancer; [12]): (33.3%) | Progressive disease, subjects/N (recurrent ovarian cancer; [12]): 5/15 | Stable disease, % of subjects (recurrent ovarian cancer; [12]): (33.3%) | Stable disease, subjects/N (recurrent ovarian cancer; [12]): 5/15 | Tumor regressions, % of subjects (recurrent ovarian cancer; [12]): (53.3%) | Tumor regressions, subjects/N (recurrent ovarian cancer; [12]): 8/15 | Positive T cell response (survivin), % of subjects (survivin; [3]): (100%) | Positive T cell response (survivin), subjects/evaluable (survivin; [3]): 4/4 | Positive T cell response (survivin), % of subjects (survivin; [4]): (100%) | Positive T cell response (survivin), subjects/evaluable (survivin; [4]): 11/11 | Positive T cell response (survivin), % of subjects (survivin; [7]): (81.5%) | Positive T cell response (survivin), subjects/evaluable (survivin; [7]): 22/27 | Positive T cell response (survivin), % of subjects (survivin; [8]): (25%)^a | Positive T cell response (survivin), subjects/evaluable (survivin; [8]): 1/4 | Positive T cell response (survivin), % of subjects (survivin; [9]): (56.3%)^b | Positive T cell response (survivin), subjects/evaluable (survivin; [9]): 9/16

Reference: US20220125903A1, “METHODS FOR IMPROVING THE EFFICACY OF A SURVIVIN THERAPEUTIC IN THE TREATMENT OF TUMORS” (IMMUNOVACCINE TECHNOLOGIES INC., priority 2018, published 2022)
